Where two headings read alike, the source gives them in different places.
Key:
[1] = cited from earlier work; for Rate of dissolution in H2O at 25° C.: grade in words
[2] = Prakash et al., 2008, cited from earlier work
[3] = room temperature (25° C.); related art; cited from earlier work
[4] = Water solubility in RO water at room temperature (25° C.); format: physicochemical; settings: g per 100 g solvent
Procedure: Hereinafter, unless specified otherwise, the solubility of material is determined in RO (reverse osmosis) water at room temperature (25° C.). Where the solubility is expressed as “%” it to be understood as number of grams of material soluble in 100 grams of solvent.
The material is deemed soluble at certain concentration if the produced solution has <10 FAU (Formazin Attenuation Unit) turbidity value.

C=C1C[C@@]23CC[C@H]4[C@@](C)(CCC[C@@]4(C)C(=O)O[C@@H]4O[C@H](CO)[C@@H](O)[C@H](O)[C@H]4O)[C@@H]2CC[C@]1(O[C@@H]1O[C@H](CO)[C@@H](O)[C@H](O[C@@H]2O[C@H](CO)[C@@H](O)[C@H](O)[C@H]2O)[C@H]1O[C@@H]1O[C@H](CO)[C@@H](O)[C@H](O)[C@H]1O)C3 [Form 1, Rebaudioside A]
Rate of dissolution in H2O at 25° C. [1]: Very low
Rate of dissolution in H2O at 25° C. (% dissolved) ([1]; in 60 minutes): (<0.2% in 60
solubility (in words) ([2]; listed as hydrate form of Rebaudioside A): lowest solubility

C=C1C[C@@]23CC[C@H]4[C@@](C)(CCC[C@@]4(C)C(=O)O[C@@H]4O[C@H](CO)[C@@H](O)[C@H](O)[C@H]4O)[C@@H]2CC[C@]1(O[C@@H]1O[C@H](CO)[C@@H](O)[C@H](O[C@@H]2O[C@H](CO)[C@@H](O)[C@H](O)[C@H]2O)[C@H]1O[C@@H]1O[C@H](CO)[C@@H](O)[C@H](O)[C@H]1O)C3 [Form 2, Rebaudioside A]
Rate of dissolution in H2O at 25° C. [1]: Intermediate
Rate of dissolution in H2O at 25° C. (% dissolved) ([1]; in 5 minutes): (<30% in 5

C=C1C[C@@]23CC[C@H]4[C@@](C)(CCC[C@@]4(C)C(=O)O[C@@H]4O[C@H](CO)[C@@H](O)[C@H](O)[C@H]4O)[C@@H]2CC[C@]1(O[C@@H]1O[C@H](CO)[C@@H](O)[C@H](O[C@@H]2O[C@H](CO)[C@@H](O)[C@H](O)[C@H]2O)[C@H]1O[C@@H]1O[C@H](CO)[C@@H](O)[C@H](O)[C@H]1O)C3 [Form 3, Rebaudioside A]
Rate of dissolution in H2O at 25° C. [1]: High
Rate of dissolution in H2O at 25° C. (% dissolved) ([1]; in 5 minutes): > 30%

C=C1C[C@@]23CC[C@H]4[C@@](C)(CCC[C@@]4(C)C(=O)O[C@@H]4O[C@H](CO)[C@@H](O)[C@H](O)[C@H]4O)[C@@H]2CC[C@]1(O[C@@H]1O[C@H](CO)[C@@H](O)[C@H](O[C@@H]2O[C@H](CO)[C@@H](O)[C@H](O)[C@H]2O)[C@H]1O[C@@H]1O[C@H](CO)[C@@H](O)[C@H](O)[C@H]1O)C3 [Form 4, Rebaudioside A]
Rate of dissolution in H2O at 25° C. [1]: High
Rate of dissolution in H2O at 25° C. (% dissolved) ([1]; in 5 minutes): > 35%
solubility (in words) ([2]; listed as rebaudioside A amorphous forms): high solubility

C=C1C[C@@]23CC[C@H]4[C@@](C)(CCC[C@@]4(C)C(=O)O[C@@H]4O[C@H](CO)[C@@H](O)[C@H](O)[C@H]4O[C@@H]4O[C@H](CO)[C@@H](O)[C@H](O)[C@H]4O)[C@@H]2CC[C@]1(O[C@@H]1O[C@H](CO)[C@@H](O)[C@H](O[C@@H]2O[C@H](CO)[C@@H](O)[C@H](O)[C@H]2O)[C@H]1O[C@@H]1O[C@H](CO)[C@@H](O)[C@H](O)[C@H]1O)C3 [Rebaudioside D]
water solubility [3]: less than 0.05%

C=C1C[C@@]23CC[C@H]4[C@@](C)(CCC[C@@]4(C)C(=O)O[C@@H]4O[C@H](CO)[C@@H](O)[C@H](O[C@@H]5O[C@H](CO)[C@@H](O)[C@H](O)[C@H]5O)[C@H]4O[C@@H]4O[C@H](CO)[C@@H](O)[C@H](O)[C@H]4O)[C@@H]2CC[C@]1(O[C@@H]1O[C@H](CO)[C@@H](O)[C@H](O[C@@H]2O[C@H](CO)[C@@H](O)[C@H](O)[C@H]2O)[C@H]1O[C@@H]1O[C@H](CO)[C@@H](O)[C@H](O)[C@H]1O)C3 [Rebaudioside M]
solubility in water ([4]; listed as Crystalline Rebaudioside M): 0%-0.1
water solubility [3]: about 0.1%

C=C1C[C@@]23CC[C@H]4[C@@](C)(CCC[C@@]4(C)C(=O)O[C@@H]4O[C@H](CO)[C@@H](O)[C@H](O[C@@H]5O[C@H](CO)[C@@H](O)[C@H](O)[C@H]5O)[C@H]4O[C@@H]4O[C@H](CO)[C@@H](O)[C@H](O)[C@H]4O)[C@@H]2CC[C@]1(O[C@@H]1O[C@H](CO)[C@@H](O)[C@H](O[C@@H]2O[C@H](CO)[C@@H](O)[C@H](O)[C@H]2O)[C@H]1O[C@@H]1O[C@H](CO)[C@@H](O)[C@H](O)[C@H]1O)C3 [rebaudioside M]
solubility in water [4]: 2%

Source: US12193460B2, “Highly soluble steviol glycosides” (PureCircle USA Inc., priority 2016, dated 2025)
